One assay concerns rat aorta rings. Kind of assay: Relaxation of rat aorta rings. It is filed as cell-based. The note with it: phenylephrine-contracted rat thoracic aorta rings; cumulative addition; read-out: EC50 (concentration required to evoke a 50% relaxation of the tissue). How it is done:
The activity of the compounds as potassium channel openers can also be measured as relaxation of rat aorta rings according to the following procedure:
A section of rat thoracic aorta between the aortic arch and the diaphragm was dissected out and mounted as ring preparations as described by Taylor P. D. et al, Brit J. Pharmacol, 111, 42-48 (1994).
After a 45 min. equilibration period under a tension of 2 g, the preparations were contracted to achieve 80% of the maximum response using the required concentration of phenylephrine. When the phenylephrine response reached a plateau, potential vasodilatory agents were added cumulatively to the bath in small volumes using half log molar increments at 2 min intervals. Relaxation was expressed at the percentage of the contracted tension. The potency of a compound was expressed as the concentration required to evoke a 50% relaxation of the tissue.

The subject of the next assay is rin 5F cells. Put plainly: 86Rb+ efflux from a β-cell line (increased Rb-efflux in rin 5F cells). It is filed as cell-based. The note with it: 1 h at room temperature. How it is done:
An opening of KATP -channels will result in an efflux of potassium ions. By measuring the release of ^86 Rb^+ (a radioactive potassium mimic) from e.g. beta-cells pre-incubated in the presence of ^86 Rb^+ the effect of compounds acting as potassium channel openers can be determined. The test expresses the ability of the compounds to regulate the secretion of insulin from the beta-cells.
^86 Rb^+ efflux from a β-cell line
The RIN 5F cell line was grown in RPMI 1640 with Glutamax I, supplemented with 10% fetal calf serum (from GibcoBRL, Scotland, UK) and maintained in an atmosphere of 5% CO2 /95% air at 37° C. The cells were detached with a Trypsin-EDTA solution (from GibcoBRL, Scotland, UK), resuspended in medium, added 1 mCi/ml ^86 Rb^+ and replated into microtiter plates (96 well cluster 3596, sterile, from Costar Corporation,Mass., USA) at a density of 50000 cells/well in 100 μl/well, and grown 24 hours before use in assay.
The plates were washed 4 times with Ringer buffer (150 mM NaCl, 10 mM Hepes, 3.0 mM KCl, 1.0 mM CaCl2, 20 mM Sucrose, pH 7.1). Eighty μl Ringer buffer and 1 μl control- or test compound dissolved in DMSO was added. […] The plates were counted in TopCount (Packard Instrument Company, CT, USA) for 1 min/well at the 32p program. […]

The subject of the next assay is IDDM. The conditions noted are these: animal experiments and early non-blinded experiments in humans; cited from earlier work.

Each structure is given as a SMILES string.

These results are taken from US6147098A, “Substituted guanidines and diaminonitroethenes, their preparation and use” (Novo Nordisk A/S, priority 1998, dated 2000).

As for `CC(C)CCN=C(NC#N)Nc1cc(C(F)(F)F)cc(C(F)(F)F)c1` [Example 1, N-Cyano-N'-(3,5-bis(trifluoromethyl)phenyl)-N"-(3-methylbutyl)guanidine], the EC50 in the assay on rat aorta rings worked out at 5.6 µM; in the assay on rin 5F cells, 2.6 µM.
Take `NC(=O)c1cccnc1` [Nicotinamide]: the “role against IDDM and cytokine/immune mediated beta-cell destruction” value in the assay on IDDM was “protective role”.
